In patent US9796742B2, “Kinase inhibitors” (Respivert Limited, priority 2012, dated 2017) one finds IC50 data, which are given here for one compound.

Each structure is given as a SMILES string. pIC50: −log10 of the molar value. Where two headings read alike, the source gives them in different places.

Usually pIC50 stands for −log10 of the IC50, conventionally taken in molar units.

Format in all cases: cell-based
In experiment [1] the test system is PBMCs. In words: LPS-induced TNFα/IL-8 release in PBMC cells. As to conditions: Homo sapiens, LPS-stimulated PBMCs. The gist of the method:
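Cytokines (TNFα, IL-8) in supernatants were quantified by sandwich ELISA after a 24 h challenge with 1 ng/mL E. coli LPS at 37° C, 5% CO2. Healthy-donor PBMCs had been exposed to compound for 2 h beforehand. IC50 values were fitted from the concentration-response curves.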

Experiment [2] concerns d-U937 cells. Kind of experiment: LPS-induced TNFα/IL-8 release in d-U937 cells. As to conditions: Homo sapiens, dU937, LPS-stimulated d-U937 cells. Here is the method: U937 cells, a human monocytic cell line, are differentiated to macrophage-type cells by incubation with phorbol myristate acetate (PMA; 100 ng/mL) for 48 to 72 hr. Cells are pre-incubated with final concentrations of test compound for 2 hr and are then stimulated with 0.1 μg/mL of LPS (from E. Coli: O111:B4, Sigma) for 4 hr. The supernatant is collected for determination of TNFα and IL-8 concentrations by sandwich ELISA (Duo-set, R&D systems). The inhibition of TNFα production is calculated as a percentage of that achieved by 10 μg/mL of BIRB796 at each concentration of test compound by comparison against vehicle control. The relative 50% effective concentration (REC50) is determined from the resultant concentration-response curve. The inhibition of IL-8 production is calculated at each concentration of test compound by comparison with vehicle control. The 50% inhibitory concentration (IC50) is determined from the resultant concentration-response curve.

Experiment [3] deals with PBMCs. Kind of experiment: IL-2 and IFN gamma release in CD3/CD28 stimulated PBMC cells. As to conditions: Homo sapiens. The gist of the method: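 They were cultured with compound for 3 days. IL-2 and IFN-γ in supernatants were quantified by sandwich ELISA, and IC50 was derived from the dose-response curve.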

`COCCOCCOCCOc1cc(Nc2nccc(Oc3ccc(NC(=O)Nc4cc(C(C)(C)C)nn4-c4cccc(CP(C)(C)=O)c4)c4ccccc34)n2)cc(OC)c1` [Example 60, 1-(3-(tert-Butyl)-1-(3-((dimethylphosphoryl)methyl)phenyl)-1H-pyrazol-5-yl)-3-(4-((2-((3-methoxy-5-(2-(2-(2-methoxyethoxy)ethoxy)ethoxy)phenyl)amino)pyrimidin-4-yl)oxy)-naphthalen-1-yl)urea]: the pIC50 in experiment [1] (IL-8, read-out: IC50 Values for Inhibition of Cytokine Release, PBMCs IL-8) was 9.05; in experiment [1] (TNFα, read-out: IC50 Values for Inhibition of Cytokine Release, PBMCs TNFα), 9.22; in experiment [2] (IL-8, read-out: IC50 Values for Inhibition of Cytokine Release, dU937 cells IL-8), 9.40; in experiment [2] (TNFα (REC50 relative to BIRB796 per method), read-out: IC50 Values for Inhibition of Cytokine Release, dU937 cells TNFα) it was 9.70; in experiment [3] (IFNγ, read-out: IC50 Values for Inhibition of Cytokine Release, PBMCs IFNγ), 8.72; in experiment [3] (IL-2, read-out: IC50 Values for Inhibition of Cytokine Release, PBMCs IL-2), 7.80.
